Results published in US8192962B2, “Processes for detecting toxic substances” (Daikin Industries, Ltd., priority 2001, dated 2012).

Tested on: Unknown protein yeast genes
Experiment: DNA chip mRNA expression in yeast, unknown protein yeast genes (Table 1)
Type: cell-based, Saccharomyces cerevisiae S288C
Method in brief: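 First, S288C yeast grown in YPD at 25° C. are dosed in log phase with one toxicant (growth-inhibiting, not lethal) for 2 h. Next, total RNA is extracted and poly(A) mRNA isolated and reverse-transcribed with Cy3/Cy5-dUTP. Finally, whole-genome chip fluorescence is read relative to unexposed cells.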

Measured: The level of expressed mRNA in the presence of chemical substance/The level of expressed mRNA in the absence of chemical substance

Cl[C@H]1[C@H](Cl)[C@@H](Cl)[C@@H](Cl)[C@H](Cl)[C@H]1Cl [(7), γ-hexachlorocyclohexane]
1.6: yeast gene YJL066C, incubated two hours with chemical substance | yeast gene YLR149C, incubated two hours with chemical substance | yeast gene YMR184W, incubated two hours with chemical substance | yeast gene YNL092W, incubated two hours with chemical substance | yeast gene YOL117W, incubated two hours with chemical substance
4.2: yeast gene YPL087W, incubated two hours with chemical substance
0.8: yeast gene YIL041W, incubated two hours with chemical substance
2.8: yeast gene YOR019W, incubated two hours with chemical substance
0.7: yeast gene YAL053W, incubated two hours with chemical substance | yeast gene YKL086W, incubated two hours with chemical substance | yeast gene YML117W, incubated two hours with chemical substance
3.3: yeast gene YFL024C
1.3: yeast gene YDR330W, incubated two hours with chemical substance | yeast gene YGL199C, incubated two hours with chemical substance | yeast gene YGR130C, incubated two hours with chemical substance | yeast gene YKR091W, incubated two hours with chemical substance | yeast gene YMR295C, incubated two hours with chemical substance | yeast gene YOL047C, incubated two hours with chemical substance | yeast gene YOL131W, incubated two hours with chemical substance
1.4: yeast gene YER004W, incubated two hours with chemical substance | yeast gene YJL151C, incubated two hours with chemical substance | yeast gene YJL171C, incubated two hours with chemical substance | yeast gene YLR152C, incubated two hours with chemical substance | yeast gene YOL032W, incubated two hours with chemical substance
1.1: yeast gene YEL001C, incubated two hours with chemical substance | yeast gene YFL032W, incubated two hours with chemical substance | yeast gene YHR199C, incubated two hours with chemical substance | yeast gene YKL153W, incubated two hours with chemical substance | yeast gene YLR054C, incubated two hours with chemical substance | yeast gene YLR387C, incubated two hours with chemical substance | yeast gene YLR460C | yeast gene YNL074C, incubated two hours with chemical substance | yeast gene YPL222W, incubated two hours with chemical substance
2.4: yeast gene YNL115C, incubated two hours with chemical substance | yeast gene YOL150C | yeast gene YPL196W, incubated two hours with chemical substance
4.4: yeast gene YPR151C, incubated two hours with chemical substance
1.7: yeast gene YGL047W, incubated two hours with chemical substance | yeast gene YGR110W | yeast gene YMR180C, incubated two hours with chemical substance | yeast gene YNL305C, incubated two hours with chemical substance
0.9: yeast gene YJR054W, incubated two hours with chemical substance | yeast gene YNL044W, incubated two hours with chemical substance | yeast gene YOR197W, incubated two hours with chemical substance
1.0: yeast gene YDL222C, incubated two hours with chemical substance | yeast gene YER106W, incubated two hours with chemical substance | yeast gene YFL006W, incubated two hours with chemical substance | yeast gene YLR194C, incubated two hours with chemical substance | yeast gene YLR324W, incubated two hours with chemical substance | yeast gene YOL036W, incubated two hours with chemical substance
2.7: yeast gene YJL057C, incubated two hours with chemical substance | yeast gene YMR090W
0.4: yeast gene YJL082W, incubated two hours with chemical substance
1.5: yeast gene YDR511W, incubated two hours with chemical substance | yeast gene YER163C, incubated two hours with chemical substance | yeast gene YFL010C, incubated two hours with chemical substance | yeast gene YGR101W, incubated two hours with chemical substance | yeast gene YMR097C, incubated two hours with chemical substance
2.5: yeast gene YOL082W, incubated two hours with chemical substance
3.7: yeast gene YGL053W, incubated two hours with chemical substance | yeast gene YKL071W
4.7: yeast gene YGL121C
3.0: yeast gene YHR138C, incubated two hours with chemical substance
3.2: yeast gene YDL204W, incubated two hours with chemical substance
2.3: yeast gene YER175C, incubated two hours with chemical substance
3.6: yeast gene YJL161W, incubated two hours with chemical substance
1.2: yeast gene YDR545W, incubated two hours with chemical substance | yeast gene YER158C, incubated two hours with chemical substance | yeast gene YGR221C, incubated two hours with chemical substance | yeast gene YIL023C, incubated two hours with chemical substance | yeast gene YJL152W, incubated two hours with chemical substance | yeast gene YLR350W, incubated two hours with chemical substance | yeast gene YMR067C, incubated two hours with chemical substance | yeast gene YMR095C, incubated two hours with chemical substance | yeast gene YMR107W, incubated two hours with chemical substance | yeast gene YNL234W, incubated two hours with chemical substance | yeast gene YNL281W, incubated two hours with chemical substance | yeast gene YPL206C, incubated two hours with chemical substance | yeast gene YPR023C, incubated two hours with chemical substance
2.0: yeast gene YDR411C, incubated two hours with chemical substance | yeast gene YGR154C, incubated two hours with chemical substance | yeast gene YMR191W, incubated two hours with chemical substance | yeast gene YMR316W, incubated two hours with chemical substance | yeast gene YOL071W, incubated two hours with chemical substance | yeast gene YOL162W, incubated two hours with chemical substance
5.6: yeast gene YKL151C, incubated two hours with chemical substance
1.9: yeast gene YBL048W | yeast gene YER035W, incubated two hours with chemical substance | yeast gene YER079W, incubated two hours with chemical substance | yeast gene YMR009W, incubated two hours with chemical substance | yeast gene YNL156C, incubated two hours with chemical substance
2.1: yeast gene YBL107C | yeast gene YKL195W, incubated two hours with chemical substance
3.1: yeast gene YOL083W, incubated two hours with chemical substance
1.8: yeast gene YDL072C, incubated two hours with chemical substance | yeast gene YIL087C, incubated two hours with chemical substance | yeast gene YMR102C, incubated two hours with chemical substance | yeast gene YNR068C, incubated two hours with chemical substance
2.9: yeast gene YGL037C, incubated two hours with chemical substance | yeast gene YJR008W, incubated two hours with chemical substance
